Experimental findings from US20230012368A1 (Hoffmann-La Roche Inc., priority 2018, published 2023) are described below.

Where a name gives a salt, the structure may show the parent alone. Read-outs that look alike come from different tables or passages of the source.

This experiment relates to Acinetobacter baumannii ATCC 17978. The experiment in a line: Antimicrobial susceptibility testing: 90% growth inhibitory concentration (IC90) determination. It counts as cell-based. To be noted: 90% growth inhibitory concentration, Acinetobacter baumannii ATCC17978, Iso-Sensitest broth, OD 600 nm over 16h, read-out: ATCC17978 IC90. In outline: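 Growth of the Acinetobacter baumannii strain was followed by optical density at 600 nm every 20 minutes for 16h at 35±2° C. Inoculum was ~5×10^(5) CFU/ml in Iso-Sensitest medium, with twofold compound dilutions (e.g. 50 to 0.097 μM final). The 90% inhibitory concentration was derived in log-phase growth.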

Setting [1] is: Acinetobacter baumannii, ATCC17978, 16 h.

One may read the IC90 as the concentration at which the effect reaches the 90% level. `CCc1cc(Nc2nccn3c(-c4ccc(Oc5ccccn5)c(F)c4F)cnc23)ccc1C(=O)NCCNC(=O)[C@H](N)CCNC(=N)N` [Example 426, N-[2-[[(2R)-2-amino-4-guanidino-butanoyl]amino]ethyl]-4-[[3-[2,3-difluoro-4-(2-pyridyloxy)phenyl]imidazo [1,2-a]pyrazin-8-yl]amino]-2-ethyl-benzamide; formic acid]: the IC90 under setting [1] was determined as 0.82 µM.
On the same count and under the same terms, as for `CCc1cc(Nc2nccn3c(-c4ccc(OC)c(F)c4F)cnc23)ccc1C(=O)NCCCNC(=O)NCCN` [Example 119, N-[3-(2-aminoethylcarbamoylamino)propyl]-4-[[3-(2,3-difluoro-4-methoxy-phenyl)imidazo[1,2-a]pyrazin-8-yl]amino]-2-ethyl-benzamide], the figure is 0.18 µM.
Still for that read-out and setting: as for `CCc1cc(Nc2nccn3c(-c4ccc(OC)c(F)c4F)cnc23)ccc1C(=O)NCC1CCN(C(C)(C)C(=O)O)CC1` [Example 562, 2-(4-((4-((3-(2,3-difluoro-4-methoxyphenyl)imidazo[1,2-a]pyrazin-8-yl)amino)-2-ethylbenzamido)methyl)piper-idin-1-yl)-2-methylpropanoic acid compound with formic acid], the figure is 0.32 µM; as for `CNC(=O)c1ccc(Nc2nccn3c(-c4ccc(OC)cc4)cnc23)cc1C` [Example 14, 4-((3-(4-methoxyphenyl)imidazo [1,2-a]pyrazin-8-yl)amino)-N,2-dimethylbenzamide], 0.12 µM.
With `CCc1cc(Nc2nccn3c(-c4ccc(OC)c(F)c4F)cnc23)ccc1C(=O)NCC(C)(C)N` [Example 524, N-(2-amino-2-methylpropyl)-4-((3-(2,3-difluoro-4-methoxyphenyl)imidazo[1,2-a]pyrazin-8-yl)amino)-2-ethylbenzamide hydrochloride], the IC90 under setting [1] came to 0.6 µM.
Same read-out and setting: then `Cc1cc(Nc2nccn3c(-c4ccc(OC(F)F)cc4)cnc23)ccc1C(=O)N(C)CCC1CCN(S(C)(=O)=O)CC1` [Example 234, 4-[[3-[4-(difluoromethoxy)phenyl]im-idazo[1,2-a]pyrazin-8-yl]amino]-N,2-dimethyl-N-[2-(1-methylsulfonylpiperidin-4-yl)ethyl]benzamide], with 1.3 µM; and `CCc1cc(Nc2nccn3c(-c4ccc(OC)c(F)c4F)cnc23)ccc1C(=O)NCCNC(=O)CCCCNC(=N)N` [Example 139, 4-[[3-(2,3-difluoro-4-methoxy-phenyl)imidazo[1,2-a]pyrazin-8-yl]amino]-2-ethyl-N-[2-(5-guanidino-pentanoylamino)ethyl]benzamide formate], with 0.06 µM; and `Cc1cc(Nc2nccn3c(-c4ccc(OC(F)F)cc4)cnc23)ccc1C(=O)N(C)CCCCN` [Example 200, N-(4-aminobutyl)-4-[[3-[4-(difluoromethoxy)phenyl]im-idazo[1,2-a]pyrazin-8-yl]amino]-N,2-dimethylbenzamide;hydrochlo-ride], with 0.44 µM.
On to `CCc1cc(Nc2nccn3c(-c4ccc(OC)c(F)c4F)cnc23)ccc1C(=O)NCCCNC(=O)CC[C@H](NC(=O)[C@@H](N)CCCCN)C(=O)O` [Example 403, N2-(L-lysyl)-N5-(3-(4-((3-(2,3-difluoro-4-methoxyphenyl)imidazo[1,2-a]pyrazin-8-yl)amino)-2-ethylbenzamido)propyl)-L-glutamine trihydrochloride], for which the IC90 is 0.94 µM.
Take `CCc1cc(Nc2nccn3c(-c4ccc(OC)c(F)c4F)cnc23)ccc1C(=O)NC(C)CNC(C)=N` (stereo not drawn) [Example 169, 4-[[3-(2,3-difluoro-4-methoxyphenyl)imidazo[1,2-a]pyrazin-8-yl]amino]-N-[1-(ethanimidoylamino)propan-2-yl]-2-ethylbenzamide]: the IC90 under setting [1] was determined as 0.07 µM.
On the same count and under the same terms, then `Cc1cc(Nc2nccn3c(-c4ccc(OC(F)F)cc4)cnc23)ccc1C(=O)N(C)CCC1CCN(CCC#N)CC1` [Example 309, N-[2-[1-(2-cyanoethyl)piperidin-4-yl]ethyl]-4-[[3-[4-(difluoromethoxy)phenyl]im-idazo[1,2-a]pyrazin-8-yl]amino]-N,2-dimethylbenzamide], with 0.69 µM.
Turning to `CCc1cc(Nc2nccn3c(-c4ccc(OC)c(F)c4F)cnc23)ccc1C(=O)NCC(=O)N(C)CCNC` [Example 158, 4-((3-(2,3-difluoro-4-methoxyphenyl)imidazo[1,2-a]pyrazin-8-yl)amino)-2-ethyl-N-(2-(methyl(2-(methylamino)ethyl)amino)-2-oxoethyl)benzamide; formic acid], the IC90 worked out at 0.16 µM.
As to `Cc1cc(Nc2nccn3c(-c4ccc(OC(F)F)cc4)cnc23)ccc1C(=O)NCCN1CCNC(=O)C1` [Example 221, 4-[[3-[4-(difluoromethoxy)phenyl]im-idazo[1,2-a]pyrazin-8-yl]amino]-2-methyl-N-[2-(3-oxopiperazin-1-yl)ethyl]benzamide], under setting [1], the IC90 is 1.1 µM.
In the case of `COc1ccc(-c2cnc3c(Nc4ccc(C(=O)NCCNC(=O)CC[C@@H]5NC5=O)c(C)c4)nccn23)c(F)c1F` [Example 337, 4-[[3-(2,3-difluoro-4-methoxyphenyl)imidazo[1,2-a]pyrazin-8-yl]amino]-2-methyl-N-[2-[3-[(2S)-3-oxoaziridin-2-yl]propanoylamino]ethyl]benz-amide], the IC90 under setting [1] came out at 0.52 µM.
On to `CCc1cc(Nc2nccn3c(-c4ccc(OC)c(F)c4F)cnc23)ccc1C(=O)NCC(O)CNC(=O)[C@@H](N)CN` (mixture of isomers) [Example 415, N-[3-[[(2S)-2,3-diaminopropanoyl]amino]-2-hydroxypropyl]-4-[[3-(2,3-difluoro-4-methoxyphenyl)imidazo[1,2-a]pyrazin-8-yl]amino]-2-ethylbenzamide;dihydrochlo-ride], for which the IC90 under setting [1] was 0.52 µM.
Still for that read-out and setting: then `COc1ccc(-c2cnc3c(Nc4ccc(C(=O)N(C)CC5CCOC5)c(C)c4)nccn23)cc1F` (stereo not drawn) [Example 71, 4-((3-(3-fluoro-4-methoxyphenyl)imidazo [1,2-a]pyrazin-8-yl)amino)-N,2-dimethyl-N-((tetrahydrofuran-3-yl)methyl)benzamide], with 1.1 µM; and `CCc1cc(Nc2nccn3c(-c4ccc(OC)c(F)c4F)cnc23)ccc1C(=O)NCCN1CCN(CCCC(=O)O)CC1` [Example 444, 4-(4-(2-(4-((3-(2,3-difluoro-4-methoxyphenyl)imidazo[1,2-a]pyrazin-8-yl)amino)-2-ethylbenzamido)ethyl)pipera-zin-1-yl)butanoic acid], with 0.32 µM; and `CCc1cc(Nc2nccn3c(-c4ccc(OC(F)F)c(F)c4F)cnc23)ccc1C(=O)NCC(=O)NCCN(C)C` [Example 404, 4-((3-(4-(difluoromethoxy)-2,3-difluorophenyl)imidazo[1,2-a]pyrazin-8-yl)amino)-N-(2-((2-(dimethylamino)ethyl)amino)-2-oxoethyl)-2-ethylbenzamide], with 0.36 µM.
The same measure, in the same setting: then `CNCCCN1CCc2cc(Nc3nccn4c(-c5ccc(OC)c(F)c5F)cnc34)ccc2C1=O` [Example 568, 6-[[3-(2,3-difluoro-4-methoxy-phenyl)imidazo[1,2-a]pyrazin-8-yl]amino]-2-[3-(methylamino)propyl]-3,4-dihydroisoquinolin-1-one], with 0.39 µM; and `COc1ccc(-c2cnc3c(Nc4ccc(C(=O)NCCCCN5CCOCC5)c(C)c4)nccn23)cc1F` [Example 187, 4-[[3-(3-fluoro-4-methoxyphenyl)imidazo[1,2-a]pyrazin-8-yl]amino]-2-methyl-N-(4-morpholin-4-ylbutyl)benzamide], with 0.27 µM.
Regarding `CNC(=O)c1ccc(Nc2nccn3c(-c4ccc(OC)c(F)c4)cnc23)cc1Cl` [Example 22, 2-chloro-4-((3-(3-fluoro-4-methoxyphenyl)imidazo [1,2-a]pyrazin-8-yl)amino)-N-methylbenzamide], the IC90 under setting [1] is 0.13 µM.
The same measure, in the same setting: as for `COc1ccc(-c2cnc3c(Nc4ccc(C(=O)NCCNC(=O)[C@@H]5C[C@](C)(O)CN5)c(C)c4)nccn23)c(F)c1F` [Example 372, (2S,4S)-N-[2-[[4-[[3-(2,3-difluoro-4-methoxyphenyl)imidazo[1,2-a]pyrazin-8-yl]amino]-2-methylbenzoyl]amino]ethyl]-4-hydroxy-4-methylpyrrolidine-2-carboxamide], the figure is 0.15 µM; as for `CCc1cc(Nc2nccn3c(-c4ccc(OC)c(F)c4F)cnc23)ccc1C(=O)NCC(N)CC` (stereo not drawn) [Example 523, N-(2-aminobutyl)-4-((3-(2,3-difluoro-4-methoxyphenyl)imidazo[1,2-a]pyrazin-8-yl)amino)-2-ethylbenzamide hydrochloride], 0.25 µM.
On to `CCc1cc(Nc2nccn3c(-c4ccc(OC)c(F)c4F)cnc23)ccc1C(=O)NCCCn1ccnc1` [Example 290, 4-[[3-(2,3-difluoro-4-methoxyphenyl)imidazo[1,2-a]pyrazin-8-yl]amino]-2-ethyl-N-(3-imidazol-1-ylpropyl)benzamide], for which the IC90 under setting [1] was found to be 0.05 µM.
In the case of `COc1ccc(-c2cnc3c(Nc4ccc(C(=O)N(C)C)c(C)c4)nccn23)cc1` [Example 13, 4-((3-(4-methoxyphenyl)imidazo [1,2-a]pyrazin-8-yl)amino)-N,N,2-trimethylbenzamide], under setting [1], the IC90 came to 0.24 µM.
On the same count and under the same terms, then `CCc1cc(Nc2nccn3c(-c4ccc(OC)c(F)c4F)cnc23)ccc1C(=O)NC[C@H](C)N` [Example 522, (S)-N-(2-aminopropyl)-4-((3-(2,3-difluoro-4-methoxyphenyl)imidazo[1,2-a]pyrazin-8-yl)amino)-2-ethylbenzamide hydrochloride], with 0.26 µM; and `COc1ccc(-c2cnc3c(Nc4ccc(C(=O)NCC5CCNC5)c(Cl)c4)nccn23)c(F)c1F` (stereo not drawn) [Example 60, 2-chloro-4-[[3-(2,3-difluoro-4-methoxy-phenyl)imidazo[1,2-a]pyrazin-8-yl]amino]-N-(pyrrolidin-3-ylmethyl)benzamide], with 0.22 µM.
